Measured values from paper PMC8973350, “4-Anilinoquinazoline-based benzenesulfonamides as nanomolar inhibitors of carbonic anhydrase isoforms I, II, IX, and XII: design, synthesis, in-vitro, and in-silico biological studies” (Journal of Enzyme Inhibition and Medicinal Chemistry, 2022).

Assays:
hCA XII = hCA XII (Homo sapiens, UniProt O43570); assay: stopped flow CO2 hydrase assay, hCA XII; assay type: biochemical; settings: errors ±5–10% of the stated values
Procedure: (§1) The activity of the CA-catalyzed CO2 hydration reaction was evaluated employing an applied photophysics stopped-flow instrument. […] A minimum of six traces of the starting 5–10% of the reaction were analysed to measure the initial velocity for each inhibitor. In a similar manner, the uncatalyzed rates were evaluated and subtracted from the overall calculated rates. Stock inhibitor solutions (10 mM) were prepared in distilled–deionized water, and dilutions up to 0.01 nM were prepared with distilled–deionized water after that. Preincubation of the inhibitor enzyme solutions at room temperature to enable the formation of the E-I complex was carried out for 15 min before starting the experiment. The inhibition constants were determined employing PRISM 3, while the kinetic parameters for the uninhibited enzymes were calculated using Lineweaver-Burk plots that comprise the mean of at least three separate measurements with errors ranging to ±5–10% of the stated values[37]^,[38].
(§2) This panel comprised the two ubiquitously expressed cytosolic hCA I and II isoforms, along with the two tumour-related transmembrane hCA IX and XII isoforms.

hCA IX = hCA IX (Homo sapiens, UniProt Q16790); assay: stopped flow CO2 hydrase assay, hCA IX; assay type: biochemical; settings: errors ±5–10% of the stated values
Procedure: as §1, §2

hCA II = hCA II (Homo sapiens, UniProt P00918); assay: stopped flow CO2 hydrase assay, hCA II; assay type: biochemical; settings: for folds of potency compared to AAZ against isoform hCA II: relative to AAZ (12.1 nM); for Ki: stopped flow CO2 hydrase assay, errors ±5–10% of the stated values; for inhibitory activity against hCA II (in words): compared to their para-sulphonamide analogues
Procedure: as §1, §2

hCA I = hCA I (Homo sapiens, UniProt P00915); assay: stopped flow CO2 hydrase assay, hCA I; assay type: biochemical; settings: for folds higher potency against hCA I when compared to the standard (AAZ, V): relative to AAZ; for Ki: stopped flow CO2 hydrase assay, errors ±5–10% of the stated values
hCA I, sequence (P00915 whole entry): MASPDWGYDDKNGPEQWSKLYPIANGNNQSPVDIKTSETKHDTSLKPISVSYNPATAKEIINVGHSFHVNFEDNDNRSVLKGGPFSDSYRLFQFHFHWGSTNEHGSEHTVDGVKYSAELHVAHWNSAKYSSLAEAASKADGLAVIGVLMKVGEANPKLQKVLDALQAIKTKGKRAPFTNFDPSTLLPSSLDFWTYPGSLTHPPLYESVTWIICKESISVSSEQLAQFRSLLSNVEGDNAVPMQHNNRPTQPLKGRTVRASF
Procedure: as §1, §2

hCA XII, sequence (O43570 25-354): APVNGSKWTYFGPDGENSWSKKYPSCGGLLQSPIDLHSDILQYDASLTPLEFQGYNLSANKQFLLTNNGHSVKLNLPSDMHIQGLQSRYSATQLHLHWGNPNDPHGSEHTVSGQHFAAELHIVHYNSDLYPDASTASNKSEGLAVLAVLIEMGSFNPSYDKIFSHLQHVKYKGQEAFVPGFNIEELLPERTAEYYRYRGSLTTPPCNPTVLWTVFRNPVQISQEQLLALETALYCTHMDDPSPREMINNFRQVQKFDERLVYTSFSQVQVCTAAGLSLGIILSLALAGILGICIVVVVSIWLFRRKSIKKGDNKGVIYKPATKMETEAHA

SMILES | Ki (hCA XII) | Ki (hCA IX) | folds of potency compared to AAZ against isoform hCA II (hCA II) | Ki (hCA II) | folds higher potency against hCA I when compared to the standard (AAZ, V) (hCA I) | Ki (hCA I) | inhibitory activity against hCA II (in words) (hCA II) | inhibitory activity against hCA I (in words) (hCA I) | melting point
NS(=O)(=O)c1ccc(Nc2ncnc3ccc(Br)cc23)cc1 [Compound 3a] | 46.5 nM | 174 nM | 1.4 folds | 8.7 nM | 2.8 folds | 89.4 nM | – | – | –
NS(=O)(=O)c1cccc(Nc2ncnc3ccc(Br)cc23)c1 [Compound 3b] | 39.4 nM | 95.3 nM | – | 5760 nM | – | 7100 nM | loss of activity | lost all activity | –
NS(=O)(=O)c1ccc(Nc2ncnc3ccc(-c4ccccc4)cc23)cc1 [Compound 4a, 4-((6-phenylquinazolin-4-yl)amino)benzenesulfonamide] | 65.7 nM | 180 nM | 5 folds | 2.4 nM | – | 600 nM | – | – | –
NS(=O)(=O)c1ccc(Nc2ncnc3ccc(-c4ccc(C=O)cc4)cc23)cc1 [Compound 4b, 4-((6–(4-formylphenyl)quinazolin-4-yl)amino)benzenesulfonamide] | 67.4 nM | 86.9 nM | – | – | – | 651 nM | – | – | –
NS(=O)(=O)c1ccc(Nc2ncnc3ccc(-c4ccc(F)cc4)cc23)cc1 [Compound 4c, 4-((6–(4-fluorophenyl)quinazolin-4-yl)amino)benzenesulfonamide] | 93 nM | 560 nM | – | 47.1 nM | – | 931 nM | – | – | –
NS(=O)(=O)c1ccc(Nc2ncnc3ccc(-c4cccc([N+](=O)[O-])c4)cc23)cc1 [Compound 4d, 4-((6–(3-nitrophenyl)quinazolin-4-yl)amino)benzenesulfonamide] | 90.7 nM | 265 nM | – | 55.7 nM | – | 588 nM | – | – | –
COc1ccc(-c2ccc3ncnc(Nc4ccc(S(N)(=O)=O)cc4)c3c2)cc1 [Compound 4e, 4-((6–(4-methoxyphenyl)quinazolin-4-yl)amino)benzenesulfonamide] | 77 nM | 86.9 nM | 2.6 folds | 4.6 nM | 2.7 folds | 91.2 nM | – | – | –
NS(=O)(=O)c1ccc(Nc2ncnc3ccc(-c4ccsc4)cc23)cc1 [Compound 4f, 4-((6-(thiophen-3-yl)quinazolin-4-yl)amino)benzenesulfonamide] | 89.5 nM | 86.5 nM | – | 37.1 nM | 4 folds | 60.9 nM | – | – | –
NS(=O)(=O)c1cccc(Nc2ncnc3ccc(-c4ccc(F)cc4)cc23)c1 [Compound 4g, 3-((6–(4-fluorophenyl)quinazolin-4-yl)amino)benzenesulfonamide] | 30.5 nM | 229 nM | – | 231 nM | – | 3130 nM | – | – | –
NS(=O)(=O)c1ccc(Nc2ncnc3ccc(-c4ccc(N5CCOCC5)cc4)cc23)cc1 [Compound 4h, 4-((6–(4-morpholinophenyl)quinazolin-4-yl)amino)benzenesulfonamide] | 49.8 nM | 337 nM | – | 112 nM | – | 548 nM | – | – | –
NS(=O)(=O)c1cccc(Nc2ncnc3ccc(-c4ccc(C=O)o4)cc23)c1 [Compound 4i, 3-((6–(5-formylfuran-2-yl)quinazolin-4-yl)amino)benzenesulfonamide] | 52.7 nM | 488 nM | – | 2420 nM | – | 5580 nM | – | – | –
NS(=O)(=O)c1ccc(Nc2ncnc3cc(-c4cccc(O)c4)ccc23)cc1 [Compound 4j, 4-((7–(3-hydroxyphenyl)quinazolin-4-yl)amino)benzenesulfonamide] | 66.7 nM | 245 nM | – | 66.3 nM | – | 361 nM | – | – | –
NS(=O)(=O)c1cccc(Nc2ncnc3cc(-c4cccc(O)c4)ccc23)c1 [Compound 4k, 3-((7–(3-hydroxyphenyl)quinazolin-4-yl)amino)benzenesulfonamide] | 69.7 nM | 90.3 nM | – | 2520 nM | – | 4680 nM | loss of activity | – | –
NS(=O)(=O)c1cccc(Nc2ncnc3ccc(-c4ccccc4)cc23)c1 [Compound 4l, 3-((6-phenylquinazolin-4-yl)amino)benzenesulfonamide] | 89.4 nM | 88.8 nM | – | 678 nM | – | 6570 nM | loss of activity | – | 327 to 329 °C
